Measured values published in patent US4994582A, “Novel antibiotic NK130119” (Nippon Kayaku Kabushiki Kaisha, priority 1989, dated 1991).
Values after ≈ are worked out from the molar mass of the structure shown.

Key:
HeLa S3 cells = test: growth-inhibitory effect on HeLa S3 culture cells, dye exclusion method; format: cell-based; details: Homo sapiens, 72 h
Method: The growth-inhibitory effect of the compound of the present invention on HeLa S3 culture cells was examined. A 96-well plate was inoculated with HeLa S3 cells at a ratio of 1.5×10^3 cells/well and incubated. One day after the inoculation, the compound of the present invention was added to the culture medium at various concentrations. Three days after the addition, cells in each well were counted by the dye exclusion method to thereby evaluate the growth-inhibitory effect of the compound of the present invention at various concentrations on HeLa S3 cells.

[1] = system: mouse colonic cancer cells (Colon 26); test: growth-inhibitory effect on mouse colonic cancer cells, dye exclusion method; format: cell-based
Method: The growth-inhibitory effects of the compound of the present invention on mouse colonic cancer cells (Colon 26) and human colonic cancer cells (SW1116) were examined. A 96-well plate was inoculated with mouse colonic cancer cells at a ratio of 1.5×10^3 cells per well, while another 96-well plate was inoculated with human colonic cancer cells at a ratio of 3.0×10^3 per well. These cells were incubated in an incubator at 37° C. under 5% CO2 for 24 hours. Then the compound of the present invention was added thereto at various concentrations. Cells in each well were counted by the dye exclusion method 65 hours and 96 hours after the addition to thereby evaluate the growth-inhibitory effect of the test compound on the mouse colonic cancer cells and that on the human colonic cancer cells.

[2] = system: human pulmonary cancer cells (PC-3); test: growth-inhibitory effect on human pulmonary cancer cells, dye exclusion method; format: cell-based; details: 72 h, three days
Method: the growth-inhibitory effects of the compound of the present invention on mouse pulmonary cancer cells (LL) and human plumonary cancer cells (PC-3) were examined.
A 96-well plate was inoculated with mouse polmonary cancer cells at a ratio of 8.0×10^2 cells per well, while another 96-well plate was inoculated with human pulmonary cancer cells at a ratio of 2.5×10^3 per well. These cells were incubated in an incubator at 37° C. under 5% CO2 for 24 hours. Then the compound of the present invention was added thereto at various concentrations. Cells in each well were counted by the dye exclusion method three days after the addition to thereby evaluate the growth-inhibitory effect of the test compound on the mouse pulmonary cancer cells (LL) and that on the human pulmonary cancer cells (PC-3).

[3] = system: mouse melanoma cells (B16); test: growth-inhibitory effect on mouse melanoma cells, dye exclusion method; format: cell-based; details: 72 hours
Method: The growth-inhibitory effects of the compound of the present invention on mouse melanoma cells (B16) and human melanoma cells (G361) were examined. A 96-well plate was inoculated with mouse melanoma cells at a ratio of 1.5×10^3 cells per well, while another 96-well plate was inoculated with human melanoma cells at a ratio of 1.0×10^3 per well. These cells were incubated in an incubator at 37° C. under 5% CO2. Then the compound of the present invention was added thereto at various concentrations. Cells in each well were counted by the dye exclusion method 72 hours after the addition to thereby evaluate the growth-inhibitory effect of the test compound on the mouse melanoma cells and that on the human melanoma cells at various concentrations.

[4] = system: vascularization by the Ehrlich asoites tumor cells crude extract; test: vascularization-inhibitory effect, rabbit corneal assay; format: in vivo; details: slow-releasing pellet in cornea
Method: The vascularization-inhibitory effect of the compound of the present invention was examined by rabbit corneal assay reported by M. A. Gimbrone et al. (J. National Cancer Inst., 52, 412 (1974)). Namely, the center of the cornea of the eye of a rabbit was incised with a knife at a length of approximately 2 mm to thereby form a pouch. Then a slow-releasing pellet containing 100 μg of a crude extract of Ehrlich asoites tumor cells, which had been preliminarily prepared according to a method proposed by R. Langer et al. (Nature, 263, 797 ([…])), was introduced into the pouch. Further another slow-releasing pellet containing 0.3 to 81 μg of the compound of the present invention was introduced there into so as to contact these pellets with each other.

[5] = system: two-spoted spider mite acarids (a Kelthane-resistant species); test: insecticidal action, mortality of two-spoted spider mite imagos; format: in vivo; details: after 2 days
Method: The insecticidal action of the compound of the present invention was examined by the following method.
(1) An imago of two-spoted spider mite acarids (a Kelthane-resistant species) was used as a test vermin, and the mortality rate thereof was assaYed according to an ordinary method (described on page 327 of "NoYaku Seibutsu Kenteiho" edited by Toyoji Hosotsuji).
Specifically, a solution of the compound of the present invention in acetone (0.1%) was added to 0.5 ml of an aqueous sucrose solution (1%) to have a predetermined concentration. Ten two-spoted spider mite acarids were released in a vessel (20-ml beaker), and the vessel was covered with a paraffin film. The agent solution prepared above was put on the paraffin film, and another praffin film was put thereon. The beaker was allowed to stand in a thermostatic chamber (20°±1° C.) for a predetermined period of time, and the life and death of the test vermin were investigated.

acute toxicity on mice = details: mouse, in vivo, ip
solubility = format: physicochemical

## CCC1/C=C/C=C/CC(C)C(O)C(C)(O)C(=O)C(C)C(O)C(C)C(=O)C(C)C(O)C(C)/C=C/C(=O)OC2C(C)C(CC1)OC1(CCC(C)C(CC(C)O)O1)C2CC (stereo not drawn) [NK130119]
HeLa S3 cells; HeLa S3, 0.039 μg/ml, three days, read-out: Growth-inhibitory ratio
  inhibition at 0.039 µg/mL: 40%
HeLa S3 cells; HeLa S3, 0.156 μg/ml, three days, read-out: Growth-inhibitory ratio
  inhibition at 0.156 µg/mL: 43.5%
HeLa S3 cells; HeLa S3, 0.625 μg/ml, three days, read-out: Growth-inhibitory ratio
  inhibition at 0.625 µg/mL: 47.5%
HeLa S3 cells; HeLa S3, 2.5 μg/ml, three days, read-out: Growth-inhibitory ratio
  inhibition at 2.5 µg/mL: 55.3%
HeLa S3 cells; HeLa S3, 10 μg/ml, three days, read-out: Growth-inhibitory ratio
  inhibition at 10 µg/mL: 83.6%
HeLa S3 cells; HeLa S3 cells, three days after addition
  IC50: 0.987 µg/mL (≈ 1.23 µM)
[1]; Mus musculus, Colon 26, 0.0006 μg/ml, read-out: Growth-inhibitory ratio
  inhibition at 0.0006 µg/mL: 2.54%
[1]; Mus musculus, Colon 26, 0.0024 μg/ml, read-out: Growth-inhibitory ratio
  inhibition at 0.0024 µg/mL: 4.17%
[1]; Mus musculus, Colon 26, 0.0098 μg/ml, read-out: Growth-inhibitory ratio
  inhibition at 0.0098 µg/mL: 41%
[1]; Mus musculus, Colon 26, 0.039 μg/ml, read-out: Growth-inhibitory ratio
  inhibition at 0.039 µg/mL: 87.6%
[1]; Mus musculus, Colon 26, 0.156 μg/ml, read-out: Growth-inhibitory ratio
  inhibition at 0.156 µg/mL: 90.3%
[1]; Mus musculus, Colon 26, 0.625 μg/ml, read-out: Growth-inhibitory ratio
  inhibition at 0.625 µg/mL: 88.9%
[1]; Mus musculus, Colon 26, 2.5 μg/ml, read-out: Growth-inhibitory ratio
  inhibition at 2.5 µg/mL: 96%
[1]; Mus musculus, Colon 26, 10 μg/ml, read-out: Growth-inhibitory ratio
  inhibition at 10 µg/mL: 101%
[1]; mouse colonic cancer cells (Colon 26), cells counted 65 hours and 96 hours after addition
  IC50: < 0.025 µg/mL
[2]; human pulmonary cancer cells (PC-3)
  IC50: 2 µg/mL (≈ 2.48 µM)
[2]; Homo sapiens, PC-3, 0.0006 μg/ml, read-out: Growth-inhibitory ratio
  inhibition at 0.0006 µg/mL: 0.8%
[2]; Homo sapiens, PC-3, 0.0024 μg/ml, read-out: Growth-inhibitory ratio
  inhibition at 0.0024 µg/mL: 1.4%
[2]; Homo sapiens, PC-3, 0.0098 μg/ml, read-out: Growth-inhibitory ratio
  inhibition at 0.0098 µg/mL: 6.2%
[2]; Homo sapiens, PC-3, 0.039 μg/ml, read-out: Growth-inhibitory ratio
  inhibition at 0.039 µg/mL: 22.6%
[2]; Homo sapiens, PC-3, 0.156 μg/ml, read-out: Growth-inhibitory ratio
  inhibition at 0.156 µg/mL: 21.3%
[2]; Homo sapiens, PC-3, 0.625 μg/ml, read-out: Growth-inhibitory ratio
  inhibition at 0.625 µg/mL: 28%
[2]; Homo sapiens, PC-3, 2.5 μg/ml, read-out: Growth-inhibitory ratio
  inhibition at 2.5 µg/mL: 54.3%
[2]; Homo sapiens, PC-3, 10 μg/ml, read-out: Growth-inhibitory ratio
  inhibition at 10 µg/mL: 91.5%
[3]; Mus musculus, B16, 0.0006 μg/ml, read-out: Growth-inhibitory ratio
  inhibition at 0.0006 µg/mL: 0.63%
[3]; Mus musculus, B16, 0.0024 μg/ml, read-out: Growth-inhibitory ratio
  inhibition at 0.0024 µg/mL: 0.63%
[3]; Mus musculus, B16, 0.0097 μg/ml, read-out: Growth-inhibitory ratio
  inhibition at 0.0097 µg/mL: 1.32%
[3]; Mus musculus, B16, 0.039 μg/ml, read-out: Growth-inhibitory ratio
  inhibition at 0.039 µg/mL: 34.2%
[3]; Mus musculus, B16, 0.156 μg/ml, read-out: Growth-inhibitory ratio
  inhibition at 0.156 µg/mL: 45.9%
[3]; Mus musculus, B16, 0.625 μg/ml, read-out: Growth-inhibitory ratio
  inhibition at 0.625 µg/mL: 49.7%
[3]; Mus musculus, B16, 2.5 μg/ml, read-out: Growth-inhibitory ratio
  inhibition at 2.5 µg/mL: 79%
[3]; Mus musculus, B16, 10 μg/ml, read-out: Growth-inhibitory ratio
  inhibition at 10 µg/mL: 101%
[3]; mouse melanoma cells (B16)
  IC50: 0.64 µg/mL (≈ 0.795 µM)
[4]; 1 μg or above
  retardation of vascularization compared with control group: significantly retarded till the fourth day
[4]; 2.7 ug or above
  retardation of vascularization compared with control group: till the eighth day
[5]; 1 ppm
  Mortality rate, imagos of two-spoted spider mite: 20%
[5]; 10 ppm
  Mortality rate, imagos of two-spoted spider mite: 60%
[5]; 100 ppm
  Mortality rate, imagos of two-spoted spider mite: 100%
Acute toxicity on mice
  LD50: 0.05 mg/kg
solubility; hexane
  solubility in hexane: hardly soluble
solubility; methanol, acetone, ethyl acetate and ethanol
  solubility in organic solvents: soluble
solubility; water
  solubility in water: hardly soluble
